Assay results from patent US20090326007A1, “Compounds and methods for modulating sir2 protein activity” (priority 2007, published 2009).
“Also recorded” adds a separate entry of the source. Like-named read-outs stand apart in the source and are kept apart here. *1 amine or outer side, *2 acyl side, *3 side chain or, on linkers, in order; H or OH if unused. Where a SMILES comes first, the peptide text is derived from it. Bridges are numbered along the chain shown (N, C = ends). [ ]: non-standard residue; d: D form. X1 = CC(C)CCCCCCCCC[C@H](CC(=O)[*:1])O[*:2]

Key:
human SIRT3 = target: T1, human SIRT3 (Homo sapiens, UniProt Q9NTG7); test: Inhibition assay against human SIRT3 (fluorigenic)
T1 sequence (Q9NTG7 1-399): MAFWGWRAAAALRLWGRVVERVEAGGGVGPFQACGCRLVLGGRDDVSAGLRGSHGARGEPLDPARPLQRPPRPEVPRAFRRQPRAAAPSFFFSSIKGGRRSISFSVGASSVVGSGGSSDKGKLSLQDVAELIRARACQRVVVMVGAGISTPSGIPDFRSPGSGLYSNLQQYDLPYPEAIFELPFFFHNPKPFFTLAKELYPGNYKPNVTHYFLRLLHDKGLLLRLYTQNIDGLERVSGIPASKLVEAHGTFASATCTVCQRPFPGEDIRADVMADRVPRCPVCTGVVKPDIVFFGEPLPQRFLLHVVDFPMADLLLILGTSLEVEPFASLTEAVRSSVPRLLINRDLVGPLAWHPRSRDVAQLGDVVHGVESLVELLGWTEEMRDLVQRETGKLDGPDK
Procedure: (§1) Human recombinant SIRT3 was purchased from Enzo Life Sciences.
(§2) Inhibition Assay Against Human SIRT2 and SIRT3. […] Two independent measurements were performed for each compound and the average and standard deviation are reported.

human SIRT2 = target: T2, human SIRT2 (Homo sapiens, UniProt Q8IXJ6); test: Inhibition assay against human SIRT2 (fluorigenic)
T2 sequence (Q8IXJ6 1-352 isoform Q8IXJ6-2): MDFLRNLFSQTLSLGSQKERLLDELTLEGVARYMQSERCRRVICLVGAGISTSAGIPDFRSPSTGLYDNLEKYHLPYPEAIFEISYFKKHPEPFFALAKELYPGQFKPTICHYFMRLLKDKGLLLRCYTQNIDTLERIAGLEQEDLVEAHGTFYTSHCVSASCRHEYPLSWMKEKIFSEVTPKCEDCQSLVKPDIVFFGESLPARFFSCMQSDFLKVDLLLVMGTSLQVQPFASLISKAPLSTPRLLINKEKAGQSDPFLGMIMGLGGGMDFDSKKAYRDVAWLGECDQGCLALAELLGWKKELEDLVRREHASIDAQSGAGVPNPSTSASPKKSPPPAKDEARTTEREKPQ
Procedure: as §1, §2

Hst2 [1] = target: T3, Hst2 (Saccharomyces cerevisiae, UniProt P53686); test: Competition assay (inhibition mode versus NAD+ and acetyl-lysine substrate); assay type: biochemical
T3 sequence (P53686 1-294): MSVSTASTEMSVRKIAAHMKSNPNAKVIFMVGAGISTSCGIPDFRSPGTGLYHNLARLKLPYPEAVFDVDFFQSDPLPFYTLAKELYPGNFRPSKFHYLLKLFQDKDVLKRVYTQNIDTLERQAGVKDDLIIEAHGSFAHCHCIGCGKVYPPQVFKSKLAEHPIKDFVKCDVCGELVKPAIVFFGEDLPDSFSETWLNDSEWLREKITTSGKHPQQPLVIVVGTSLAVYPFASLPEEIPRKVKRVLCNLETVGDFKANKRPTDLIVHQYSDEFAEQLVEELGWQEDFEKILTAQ
Procedure: Competition Assay. […] The fluorigenic assay described above was used with a fixed enzyme concentration of 1 μM. When competition with NAD^+ was being tested, the FLUOR DE LYS-SIRT1 deacetylase substrate was held at a constant concentration of 100 μM and the NAD^+ was titrated from ⅓-5× KmNAD+ (5-80 μM). […] The inhibitors were titrated from ˜½-several times their estimated Ki as indicated. The reaction time was 15 minutes, and each condition was tested in duplicate. The Km, kcat and kcat/Km values were determined by direct fit of the data in SIGMAPLOT (Systat Software, Point Richmond, Calif.) to the Michealis-Menten equation. The Ki and Kis (the slope and intercept inhibition constants, respectively) and the competition type were also determined by a direct fit in SIGMAPLOT to both partial and full competitive, noncompetitive, uncompetitive and mixed competition models. Best-fit models were determined by several statistical methods including R^2, AICs and Sy.x as well as empirical evaluation of α and β values.
To determine the mechanism of inhibition of the compounds identified by HTS and to gain insight as to where these compounds may bind to the enzyme, inhibition modes were determined by varying each of the substrates with the other maintained at a fixed, saturating concentration (Table 11).

Hst2 [2] = target: T3, Hst2; test: IC50 determination, fluorigenic deacetylase assay, Hst2
Procedure: (§3) IC50 Determination. […] The dose-response curves were then fit to one-site competition or sigmoidal-dose response curves as appropriate in [sequence] PRISM (GraphPad Software, La Jolla, Calif.) and the IC50 was determined. Three independent IC50 measurements were performed for each compound and the average and standard deviation are reported.
The resulting deacetylase activity for the three experiments was averaged and reported as a percentage relative to control wells containing no inhibitor.

full-length human SIRT1 = target: T4, full-length human SIRT1 (Homo sapiens, UniProt Q96EB6); test: IC50 determination, fluorigenic deacetylase assay, FL SIRT1
T4 sequence (Q96EB6 1-747): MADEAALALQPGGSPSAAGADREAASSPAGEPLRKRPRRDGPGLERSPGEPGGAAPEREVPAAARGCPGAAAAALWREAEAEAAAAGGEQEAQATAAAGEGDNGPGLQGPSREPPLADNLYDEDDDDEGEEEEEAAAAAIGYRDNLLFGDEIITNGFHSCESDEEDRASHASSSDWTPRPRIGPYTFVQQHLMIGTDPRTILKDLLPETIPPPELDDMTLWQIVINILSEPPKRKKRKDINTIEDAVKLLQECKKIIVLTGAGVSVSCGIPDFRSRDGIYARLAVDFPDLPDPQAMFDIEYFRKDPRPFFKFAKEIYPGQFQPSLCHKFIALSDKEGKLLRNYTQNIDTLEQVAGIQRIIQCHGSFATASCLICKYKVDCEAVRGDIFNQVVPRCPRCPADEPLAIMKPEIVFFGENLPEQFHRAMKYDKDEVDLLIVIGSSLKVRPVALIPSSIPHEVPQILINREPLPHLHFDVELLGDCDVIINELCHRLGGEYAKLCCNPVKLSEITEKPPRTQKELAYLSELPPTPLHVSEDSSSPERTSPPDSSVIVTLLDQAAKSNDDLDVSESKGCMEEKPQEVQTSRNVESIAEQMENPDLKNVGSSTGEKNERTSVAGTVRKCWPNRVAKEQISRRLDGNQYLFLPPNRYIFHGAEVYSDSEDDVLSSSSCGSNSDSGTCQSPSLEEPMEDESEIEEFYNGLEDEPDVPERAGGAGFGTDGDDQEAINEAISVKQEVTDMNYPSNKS
Procedure: Cells were harvested and lysed by sonication in buffer containing 50 mM Tris, pH 7.5, 200 mM NaCl, 5 mM imidizole, 10 mM β-mercaptoethanol (BME) and 0.1 mg/mL PMSF. Soluble FL SIRT1 was purified by Ni-NTA (Qiagen, Valencia, Calif.) in a buffer containing 50 mM Tris, pH 7.5, 300 mM NaCl, 10 mM BME, 5% glycerol and 30-600 mM imidizole followed by SUPERDEX-200 gel filtration in buffer containing 50 mM Tris, pH 7.5, 150 mM NaCl, and 10 mM BME. FL SIRT1 eluted between the 670 kDa and 158 kDa globular protein standards. Since SIRT1 is known to aggregate after several days at 4° C., the protein was aliquoted and frozen at −80° C. for use in fluorigenic assays.
as §3

Hst2 [3] = target: T3, Hst2; test: SAR analysis, fluorigenic assay at 50 and 500 μM; assay type: biochemical; settings: FIG. 2, 50 μM and 500 μM compound
Text: Structure Activity Relationship (SAR) Analysis.

[4] = 50 μM compound, relative to control without inhibitor
[5] = substrate NAD+ varied, acetyl-lysine substrate 100 μM
[6] = substrate NAD+ varied, read-out: Ki
[7] = substrate acetyl-lysine varied, NAD+ 160 μM
[8] = substrate acetyl-lysine varied, read-out: Ki
[9] = read-out: Hst2 IC50, Table 5, 160 μM NAD+, 100 μM substrate, 1 μM Hst2, 15 min
[10] = read-out: SIRT1 IC50, Table 5, 240 μM NAD+, 200 μM substrate, 1 μM FL SIRT1, 15 min

## hexachlorophene [Compound 14a]
Human SIRT3; [4]
  percent of residual enzyme activity, SIRT3: 39.5 ± 1.6%
Human SIRT3; read-out: apparent IC50, SIRT3, estimated from single concentration
  potency estimated from few doses: < 50 µM
Human SIRT2; [4]
  percent of residual enzyme activity, SIRT2: 18.5 ± 0.8%
Human SIRT2; read-out: apparent IC50, SIRT2, estimated from single concentration
  potency estimated from few doses: < 50 µM
Hst2 [1]; substrate NAD+ varied
  kcat: 0.00933 ± 0.0013 s⁻¹
Hst2 [1]; [5]
  Inhibition Mechanism: fully non-competitive; also recorded: NC (full)
Hst2 [1]; [6]
  Ki: 3.9 ± 0.7 µM
Hst2 [1]; substrate acetyl-lysine varied
  kcat: 0.0222 ± 0.0015 s⁻¹
Hst2 [1]; [7]
  Inhibition Mechanism: fully mixed
Hst2 [1]; [8]
  Ki: 2.5 ± 1 µM
Hst2 [1]; with respect to the acetyl-lysine substrate
  α (mixed inhibition model): 13.4
Hst2 [2]; Table 4, Hst2
  IC50: 12.5 ± 0.6 µM
Hst2 [2]; Table 5
  IC50 values (range in words): low micromolar
Hst2 [2]; [9]
  IC50: 12.5 ± 0.6 µM
full-length human SIRT1; [10]
  IC50: 34 ± 10 µM

## [Ca+2] [Ca^2+]
Hst2 [3]
  inhibition of the Hst2 deacetylase reaction by metal ions (in words): are not

## S=c1ccccn1[O][Zn][O]n1ccccc1=S [Compound 11b, zinc pyrithione]
Hst2 [1]; Ki, substrate NAD+ varied
  Ki: 0.26 ± 0.08 µM
Hst2 [1]; Ki, substrate acetyl-lysine varied
  Ki: 0.7 ± 0.1 µM
Hst2 [1]; substrate NAD+ varied
  kcat: 0.0145 ± 0.00083 s⁻¹
Hst2 [1]; [5]
  Inhibition Mechanism: fully mixed
Hst2 [1]; substrate acetyl-lysine varied
  kcat: 0.0217 ± 0.0033 s⁻¹
Hst2 [1]; [7]
  Inhibition Mechanism: fully non-competitive; also recorded: NC (full)
Hst2 [1]; with respect to NAD+
  α (mixed inhibition model): 2.2
Hst2 [2]
  IC50: 0.65 ± 0.05 µM
  IC50 values (range in words): sub-micromolar
full-length human SIRT1
  IC50: 2.7 ± 0.2 µM

## O=C(O)CCN1C(=O)c2ccc(-c3nc4ccccc4c(=O)o3)cc2C1=O [Compound 47054]
Hst2 [2]; Table 10, Hst2
  IC50: No Inh.

## O=C(O)CCN1C(=O)c2cc(Cl)c(Cl)cc2C1=O [Compound 39008]
Hst2 [2]; Table 10, Hst2
  IC50: No Inh.

## O=C(O)CCN1Cc2ccccc2C1=O [Compound 13a, 3-(1-Oxo-1,3-dihydro-isoindol-2-yl)-propionic acid]
Human SIRT3; 50 or 100 μM compound
  inhibitory activity against human SIRT3 (in words): only weak inhibitory activity
Human SIRT3; read-out: percent of residual enzyme activity, SIRT3
  remaining activity at 50 µM: 91 ± 4.3%
Human SIRT2; 50 or 100 μM compound
  inhibitory activity against human SIRT2 (in words): only weak inhibitory activity
Human SIRT2; read-out: percent of residual enzyme activity, SIRT2
  remaining activity at 50 µM: 89 ± 1.8%
Hst2 [1]; substrate NAD+ varied
  kcat: 0.0122 ± 0.00217 s⁻¹
Hst2 [1]; [5]
  Inhibition Mechanism: fully non-competitive; also recorded: NC (full)
Hst2 [1]; [6]
  Ki: 30 ± 6 µM
Hst2 [1]; substrate acetyl-lysine varied
  kcat: 0.0167 ± 0.0017 s⁻¹
Hst2 [1]; [7]
  Inhibition Mechanism: fully non-competitive; also recorded: NC (full)
Hst2 [1]; [8]
  Ki: 39 ± 7 µM
Hst2 [2]; Table 5
  IC50 values (range in words): low micromolar
full-length human SIRT1; [10]
  IC50: 80 ± 5 µM

## Cn1cc(C2=C(c3cn(CCCSC(=N)N)c4ccccc34)C(=O)NC2=O)c2ccccc21 [Ro 31-8220 (6), Ro 31-8220, reference compound]
Hst2 [2]; [9]
  IC50: 20 ± 0.9 µM

## [Hg+2] [Hg^2+]
Hst2 [3]
  inhibition of the Hst2 deacetylase reaction by metal ions (in words): inhibitors

## [Fe+2] [Fe^2+]
Hst2 [3]
  inhibition of the Hst2 deacetylase reaction by metal ions (in words): inhibited Hst2 to similar extents

## [Cu+] [Cu^1+]
Hst2 [3]
  inhibition of the Hst2 deacetylase reaction by metal ions (in words): inhibited Hst2 to similar extents

## O=c1[nH]c(=S)[nH]c(-c2ccccc2)c1Cc1c(O)ccc2ccccc12 [Cambinol (4), Cambinol, reference compound]
Hst2 [2]
  IC50: > 1000 µM

## C[S+]([O-])CCC(C(=O)O)N1C(=O)c2ccccc2C1=O (stereo not drawn) [Compound 0032]
Hst2 [2]; Table 10, Hst2
  IC50: No Inh.

## O=C(O)CCCN1C(=O)c2ccccc2C1=O [Compound 427032]
Hst2 [2]; Table 10, Hst2
  IC50: No Inh.

## [Mg+2] [Mg^2+]
Hst2 [3]
  inhibition of the Hst2 deacetylase reaction by metal ions (in words): are not

## [Zn+2] [Zn^2+]
Hst2 [3]
  inhibition of the Hst2 deacetylase reaction by metal ions (in words): inhibitors

## [Cd+2] [Cd^2+]
Hst2 [3]
  inhibition of the Hst2 deacetylase reaction by metal ions (in words): inhibitors

## O=C1c2ccccc2C(=O)N1CCBr [Compound 91032]
Hst2 [2]; Table 10, Hst2
  IC50: No Inh.

## [Co+2] [Co^2+]
Hst2 [3]
  inhibition of the Hst2 deacetylase reaction by metal ions (in words): inhibitors

## [Ni+2] [Ni^2+]
Hst2 [3]
  inhibition of the Hst2 deacetylase reaction by metal ions (in words): inhibitors

## CC(=O)[O][Cd][O]C(C)=O [Compound 11a, cadmium acetate]
Hst2 [2]
  IC50: 1 ± 0.2 µM
Hst2 [2]; Table 5
  IC50 values (range in words): sub-micromolar

## Nc1ccc2c(c1)C(=O)N(CCC(=O)O)C2 [Compound 42071]
Hst2 [2]; Table 10, Hst2
  IC50: No Inh.

## CC(C)C(=O)CCN1C(=O)c2ccccc2C1=O [Compound 04265]
Hst2 [2]; Table 10, Hst2
  IC50: No Inh.

## O=C1CCc2c(ccc3ccccc23)O1 [Splitomycin (3), Splitomycin, reference compound]
Hst2 [2]; [9]
  IC50: > 600 µM

## Cc1ccc(C(=O)Nc2ccc(S(=O)(=O)O)c3cc(S(=O)(=O)O)cc(S(=O)(=O)O)c23)cc1NC(=O)c1cccc(NC(=O)Nc2cccc(C(=O)Nc3cc(C(=O)Nc4ccc(S(=O)(=O)O)c5cc(S(=O)(=O)O)cc(S(=O)(=O)O)c45)ccc3C)c2)c1 [Suramin (8), Suramin, reference compound]
Hst2 [2]; [9]
  IC50: 240 ± 70 µM

## CC(NC(=O)c1ccccc1/N=C/c1c(O)ccc2ccccc12)c1ccccc1 (stereo not drawn) [Sirtinol (2), Sirtinol, reference compound]
Hst2 [2]; [9]
  IC50: 48 ± 11 µM

## CC(C)CCCCCCCCC[C@@H]1CC(=O)N[C@@H](CCC(=O)O)C(=O)N[C@@H](CC(C)C)C(=O)N[C@H](CC(C)C)C(=O)N[C@@H](C(C)C)C(=O)N[C@@H](CC(=O)O)C(=O)N[C@H](CC(C)C)C(=O)N[C@@H](CC(C)C)C(=O)O1 [Surfactin (7), Surfactin, reference compound] (EL[dL]VD[dL]L; linker N-C via X1)
Hst2 [2]
  IC50: > 700 µM
full-length human SIRT1
  IC50: > 600 µM

## CN(C)CCCCC(=O)Nc1ccc(NC(=S)NC(=O)c2ccc(C(C)(C)C)cc2)cc1 [Tenovin-6 (5), Tenovin-6, reference compound]
Hst2 [2]; [9]
  IC50: > 600 µM
